According to US9593149B2, “Amylin and calcitonin receptor agonist” (Novo Nordisk A/S, priority 2014, dated 2017):
Numbered stars: 1 amine (or outer) side, 2 acyl side, 3 side chain; on linkers, the order of the positions; unused ones are H or OH. Peptide text beside a SMILES is read from it. * marks the point of attachment. C18 diacid = O=C(O)CCCCCCCCCCCCCCCCC(=O)*; γGlu = O=C(O)[C@H](CCC(=O)[*:2])N[*:1]; C14 diacid = O=C(O)CCCCCCCCCCCCC(=O)*

Assay: Assay (IV) determination of solubility
Type: physicochemical
Experimental: Assay (IV)—Determination of Solubility
The mimylin peptide was dissolved in water at ˜500 nmol/ml and mixed 1:1 with a series of buffers (100 mM glycylglycine pH 3.0, 100 mM glycylglycine pH 4.0, 100 mM glycylglycine pH 5.0, 100 mM bistrispropane pH 6.0, 100 mM bistrispropane pH 6.5, 100 mM bistrispropane pH 7.0, 100 mM bistrispropane pH 7.5, 100 mM bistrispropane pH 8.0).

Measured: Solubility

CC(C)C[C@H](NC(=O)[C@H](C)NC(=O)[C@H](CC(C)C)NC(=O)[C@@H](NC(=O)[C@H](CO)NC(=O)[C@H](CC(C)C)NC(=O)[C@H](CCC(=O)O)NC(=O)[C@H](CO)NC(=O)[C@H](C)NC(=O)[C@H](CCC(=O)O)NC(=O)CCCCCCCCCCCCCCCCC(=O)O)[C@@H](C)O)C(=O)NCC(=O)N[C@@H](CCCNC(=N)N)C(=O)N[C@@H](CC(C)C)C(=O)N[C@@H](CO)C(=O)N[C@@H](C)C(=O)N[C@@H](CCC(=O)O)C(=O)N[C@@H](CC(C)C)C(=O)N[C@@H](Cc1cnc[nH]1)C(=O)N[C@@H](CCC(=O)O)C(=O)N[C@@H](CC(C)C)C(=O)N[C@@H](C)C(=O)N[C@H](C(=O)N[C@@H](CC(C)C)C(=O)N1CCC[C@H]1C(=O)N[C@@H](CCCNC(=N)N)C(=O)N[C@H](C(=O)N[C@@H](CCC(=O)O)C(=O)N[C@H](C(=O)NCC(=O)N1CCC[C@H]1C(=O)N[C@@H](CCC(=O)O)C(=O)N[C@@H](CO)C(=O)N1CCC[C@H]1C(N)=O)[C@@H](C)O)[C@@H](C)O)[C@@H](C)O [compound 15, [N-terminal(C18 diacid), 8L]mimylin] ({C18 diacid}-EASELSTLALGRLSAELHELATLPRTETGPESP-NH2)
≧200 μM: pH 3.0 | pH 4.0 | pH 5.0 | pH 6.0 | pH 6.5 | pH 7.0 | pH 7.5 | pH 8.0

CC(C)C[C@H](NC(=O)[C@H](C)NC(=O)[C@H](C)NC(=O)[C@@H](NC(=O)[C@H](Cc1cnc[nH]1)NC(=O)[C@H](CC(C)C)NC(=O)[C@H](CCC(=O)O)NC(=O)[C@H](CO)NC(=O)[C@H](C)NC(=O)[C@H](CCC(=O)O)NC(=O)CCCCCCCCCCCCCCCCC(=O)O)[C@@H](C)O)C(=O)NCC(=O)N[C@@H](CCCNC(=N)N)C(=O)N[C@@H](CC(C)C)C(=O)N[C@@H](CO)C(=O)N[C@@H](C)C(=O)N[C@@H](CCC(=O)O)C(=O)N[C@@H](CC(C)C)C(=O)N[C@@H](Cc1cnc[nH]1)C(=O)N[C@@H](CCC(=O)O)C(=O)N[C@@H](CC(C)C)C(=O)N[C@@H](C)C(=O)N[C@H](C(=O)N[C@@H](CC(C)C)C(=O)N1CCC[C@H]1C(=O)N[C@@H](CCCNC(=N)N)C(=O)N[C@H](C(=O)N[C@@H](CCC(=O)O)C(=O)N[C@H](C(=O)NCC(=O)N1CCC[C@H]1C(=O)N[C@@H](CCC(=O)O)C(=O)N[C@@H](CO)C(=O)N1CCC[C@H]1C(N)=O)[C@@H](C)O)[C@@H](C)O)[C@@H](C)O [compound 16, [N-terminal(C18 diacid), 6H]mimylin] ({C18 diacid}-EASELHTAALGRLSAELHELATLPRTETGPESP-NH2)
≧200 μM: pH 3.0 | pH 4.0 | pH 5.0 | pH 6.0 | pH 6.5 | pH 7.0 | pH 7.5 | pH 8.0

CC(C)C[C@H](NC(=O)[C@H](C)NC(=O)[C@H](C)NC(=O)[C@@H](NC(=O)[C@H](CO)NC(=O)[C@H](Cc1cnc[nH]1)NC(=O)[C@H](CCC(=O)O)NC(=O)[C@H](CO)NC(=O)[C@H](C)NC(=O)[C@H](CCC(=O)O)NC(=O)CCCCCCCCCCCCCCCCC(=O)O)[C@@H](C)O)C(=O)NCC(=O)N[C@@H](CCCNC(=N)N)C(=O)N[C@@H](CC(C)C)C(=O)N[C@@H](CO)C(=O)N[C@@H](C)C(=O)N[C@@H](CCC(=O)O)C(=O)N[C@@H](CC(C)C)C(=O)N[C@@H](Cc1cnc[nH]1)C(=O)N[C@@H](CCC(=O)O)C(=O)N[C@@H](CC(C)C)C(=O)N[C@@H](C)C(=O)N[C@H](C(=O)N[C@@H](CC(C)C)C(=O)N1CCC[C@H]1C(=O)N[C@@H](CCCNC(=N)N)C(=O)N[C@H](C(=O)N[C@@H](CCC(=O)O)C(=O)N[C@H](C(=O)NCC(=O)N1CCC[C@H]1C(=O)N[C@@H](CCC(=O)O)C(=O)N[C@@H](CO)C(=O)N1CCC[C@H]1C(N)=O)[C@@H](C)O)[C@@H](C)O)[C@@H](C)O [compound 17, [N-terminal(C18 diacid), 5H]mimylin] ({C18 diacid}-EASEHSTAALGRLSAELHELATLPRTETGPESP-NH2)
≧200 μM: pH 3.0 | pH 4.0 | pH 5.0 | pH 6.0 | pH 6.5 | pH 7.0 | pH 7.5 | pH 8.0

CC(C)C[C@H](NC(=O)[C@H](C)NC(=O)[C@H](C)NC(=O)[C@@H](NC(=O)[C@H](CO)NC(=O)[C@H](CC(C)C)NC(=O)[C@H](CCC(=O)O)NC(=O)[C@H](CO)NC(=O)[C@H](C)NC(=O)[C@H](CCC(=O)O)NC(=O)CCCCCCCCCCCCCCCCC(=O)O)[C@@H](C)O)C(=O)NCC(=O)N[C@@H](CCCNC(=N)N)C(=O)N[C@@H](CC(C)C)C(=O)N[C@@H](CO)C(=O)N[C@@H](C)C(=O)N[C@@H](CCC(=O)O)C(=O)N[C@@H](CC(C)C)C(=O)N[C@@H](Cc1cnc[nH]1)C(=O)N[C@@H](CCC(=O)O)C(=O)N[C@@H](CC(C)C)C(=O)N[C@@H](C)C(=O)N[C@H](C(=O)N[C@@H](CC(C)C)C(=O)N1CCC[C@H]1C(=O)N[C@@H](CCCNC(=N)N)C(=O)N[C@H](C(=O)N[C@@H](CCC(=O)O)C(=O)N[C@H](C(=O)NCC(=O)N1CCC[C@H]1C(=O)N[C@@H](CCC(=O)O)C(=O)N[C@@H](Cc1cnc[nH]1)C(=O)N1CCC[C@H]1C(N)=O)[C@@H](C)O)[C@@H](C)O)[C@@H](C)O [compound 18, [N-terminal(C18 diacid), 32H]mimylin] ({C18 diacid}-EASELSTAALGRLSAELHELATLPRTETGPEHP-NH2)
≧200 μM: pH 3.0 | pH 4.0 | pH 5.0 | pH 6.0 | pH 6.5 | pH 7.0 | pH 7.5 | pH 8.0

CC(C)C[C@H](NC(=O)[C@H](C)NC(=O)[C@H](C)NC(=O)[C@@H](NC(=O)[C@H](CO)NC(=O)[C@H](CC(C)C)NC(=O)[C@H](CCC(=O)O)NC(=O)[C@H](CO)NC(=O)[C@H](C)NC(=O)CC[C@H](NC(=O)CCCCCCCCCCCCC(=O)O)C(=O)O)[C@@H](C)O)C(=O)NCC(=O)N[C@@H](CCCNC(=N)N)C(=O)N[C@@H](CC(C)C)C(=O)N[C@@H](CO)C(=O)N[C@@H](C)C(=O)N[C@@H](CCC(=O)O)C(=O)N[C@@H](CC(C)C)C(=O)N[C@@H](Cc1cnc[nH]1)C(=O)N[C@@H](CCC(=O)O)C(=O)N[C@@H](CC(C)C)C(=O)N[C@@H](C)C(=O)N[C@H](C(=O)N[C@@H](CC(C)C)C(=O)N1CCC[C@H]1C(=O)N[C@@H](CCCNC(=N)N)C(=O)N[C@H](C(=O)N[C@@H](CCC(=O)O)C(=O)N[C@H](C(=O)NCC(=O)N1CCC[C@H]1C(=O)N[C@@H](CCC(=O)O)C(=O)N[C@@H](CO)C(=O)N1CCC[C@H]1C(N)=O)[C@@H](C)O)[C@@H](C)O)[C@@H](C)O [compound 19, [N-terminal(C14 diacid-gGlu), des1]mimylin] ({C14 diacid-γGlu}-ASELSTAALGRLSAELHELATLPRTETGPESP-NH2)
≧200 μM: pH 3.0 | pH 4.0 | pH 5.0 | pH 6.0 | pH 6.5 | pH 7.0 | pH 7.5 | pH 8.0

CC(C)C[C@H](NC(=O)[C@H](C)NC(=O)[C@H](C)NC(=O)[C@@H](NC(=O)[C@H](CO)NC(=O)[C@H](CC(C)C)NC(=O)[C@H](CCC(=O)O)NC(=O)[C@H](CO)NC(=O)[C@H](C)NC(=O)CC[C@H](NC(=O)CCCCCCCCCCCCCCCCC(=O)O)C(=O)O)[C@@H](C)O)C(=O)NCC(=O)N[C@@H](CCCNC(=N)N)C(=O)N[C@@H](CC(C)C)C(=O)N[C@@H](CO)C(=O)N[C@@H](C)C(=O)N[C@@H](CCC(=O)O)C(=O)N[C@@H](CC(C)C)C(=O)N[C@@H](Cc1cnc[nH]1)C(=O)N[C@@H](CCC(=O)O)C(=O)N[C@@H](CC(C)C)C(=O)N[C@@H](C)C(=O)N[C@H](C(=O)N[C@@H](CC(C)C)C(=O)N1CCC[C@H]1C(=O)N[C@@H](CCCNC(=N)N)C(=O)N[C@H](C(=O)N[C@@H](CCC(=O)O)C(=O)N[C@H](C(=O)NCC(=O)N[C@@H](CO)C(=O)N[C@@H](CCC(=O)O)C(=O)N[C@@H](CO)C(=O)N1CCC[C@H]1C(N)=O)[C@@H](C)O)[C@@H](C)O)[C@@H](C)O [compound 23, [N-terminal(C18 diacid-gGlu), des1, 30S]mimylin] ({C18 diacid-γGlu}-ASELSTAALGRLSAELHELATLPRTETGSESP-NH2)
≧200 μM: pH 3.0 | pH 4.0 | pH 5.0 | pH 6.0 | pH 6.5 | pH 7.0 | pH 7.5 | pH 8.0
